Reference: ChEMBL document CHEMBL5137041, “Total Syntheses and Cytotoxicity Evaluation of Coryaurone A and Representative Analogues” (J Nat Prod, 2022)

Legend:
HL-60 = test: Cytotoxicity against human HL-60 cells assessed as cell growth inhibition incubated for 48 hrs by MTS assay; type: functional, cell-based; conditions: HL-60, 48 h
SW480 = test: Cytotoxicity against human SW480 cells assessed as cell growth inhibition incubated for 48 hrs by MTS assay; type: functional, cell-based; conditions: SW480, 48 h

Row | Structure (SMILES) | IC50 (HL-60) | IC50 (SW480)
1 | CC(C)(O)[C@H]1Cc2c(ccc3c2OC(Cc2ccc(O)c(O)c2)C3)O1 (stereo not given in full) | > 40 µM | > 40 µM
2 | CC(C)(O)[C@H]1Cc2c(ccc3c2O/C(=C\c2ccco2)C3=O)O1 | 28 µM | 39 µM
3 | CC(C)(O)[C@H]1Cc2c(ccc3c2O/C(=C\c2ccc(O)c(C(=O)O)c2)C3=O)O1 | > 40 µM | > 40 µM
4 | CC(C)(O)[C@H]1Cc2c(ccc3c2O/C(=C\c2ccc(O)c(O)c2)C3=O)O1 | 18 µM | 13 µM
5 | CC(C)(O)[C@H]1Cc2c(ccc3c2O/C(=C\c2cc([N+](=O)[O-])ccc2O)C3=O)O1 | 12 µM | 23 µM
6 | CC(C)(O)[C@H]1Cc2c(ccc3c2O/C(=C\c2ccc(O)cc2)C3=O)O1 | > 40 µM | > 40 µM
7 | CC(C)(O)[C@H]1Cc2c(ccc3c2O/C(=C\c2ccc4[nH]ccc4c2)C3=O)O1 | > 40 µM | > 40 µM
8 | CC(C)(O)[C@H]1Cc2c(ccc3c2O/C(=C\c2cccc4cccnc24)C3=O)O1 | > 40 µM | > 40 µM
9 | Cc1cc(/C=C2\Oc3c(ccc4c3C[C@H](C(C)(C)O)O4)C2=O)ccc1O | > 40 µM | 11 µM
10 | CC(C)(O)[C@H]1Cc2c(ccc3c2O/C(=C\c2ccccc2)C3=O)O1 | > 40 µM | > 40 µM
11 | CC(C)(O)[C@H]1Cc2c(ccc3c2O/C(=C\c2ccc([N+](=O)[O-])cc2)C3=O)O1 | > 40 µM | 9.2 µM
12 | CC(C)=CCc1c(O)ccc2c1O/C(=C\c1ccc(O)c(O)c1)C2=O [LICOAGROAURONE] | 19 µM | 8.2 µM
13 | CC(C)(O)[C@H]1Cc2c(ccc3c2OCC3=O)O1 | > 40 µM | > 40 µM
14 | COc1ccc(/C=C2\Oc3c(ccc4c3C[C@H](C(C)(C)O)O4)C2=O)cc1O | 3.9 µM | 20 µM
15 | CC(C)(O)[C@H]1Cc2c(ccc3c2O/C(=C\c2cccs2)C3=O)O1 | > 40 µM | > 40 µM
16 | COc1ccc(/C=C2\Oc3c(ccc4c3C[C@H](C(C)(C)O)O4)C2=O)cc1 | > 40 µM | > 40 µM
17 | CC(C)(O)[C@H]1Cc2c(ccc3c2O/C(=C\c2ccc(O)c(Cl)c2)C3=O)O1 | 14 µM | 35 µM
18 | CC(C)(O)[C@H]1Cc2c(ccc3c2O/C(=C\c2ccc(Cl)cc2)C3=O)O1 | > 40 µM | 7.7 µM
19 | COc1cc(/C=C2\Oc3c(ccc4c3C[C@H](C(C)(C)O)O4)C2=O)cc(OC)c1OC | 22 µM | > 40 µM
20 | CC(C)(O)[C@H]1Cc2c(ccc3c2O/C(=C\c2ccc(C(F)(F)F)cc2)C3=O)O1 | 16 µM | > 40 µM
